Like-named read-outs stand apart in the source and are kept apart here. Each block holds one compound with its values, some of them ahead of it.
Key:
Type in all cases: physicochemical
[1] = Stability of Compound 2 aqueous suspension in 0.5% methylcellulose/0.5% polysorbate 80; settings: for conversion of salt form in suspension vehicle: at T(0), XRPD, 1H NMR
Protocol: Methylcellulose (0.5 g) was combined with 99.0 g of purified water in a beaker and stirred in a 60-70° C. water bath for 30′-1 hr. The solution was stirred in a 0° C. ice/water bath for another 30′ or until clear. Polysorbate 80 (0.5 g) was added and stirring at room temperature followed for 30′-1 hr or until a clear solution was obtained.
The appropriate amount of Compound 2 HCl salt based on free base was weighed and transferred to a scintillation vial. The desired amount of 0.5% methylcellulose and 0.5% polysorbate 80 stock solution for making a 6 mg/mL based on free base (6.48 mg/mL based on HCl salt) was transferred into the vial and sonicated for 20 minutes with alternate stirring for 1-2 minutes. The solution was homogenized for approximately 1-2 minutes.

[2] = Stability of Compound 2 aqueous suspension in 0.5% methylcellulose; settings: room temperature; methylcellulose formulation
Protocol: A 100 mL stock solution of 0.5% by weight methylcellulose was prepared by stirring 0.5 g of methylcellulose with 99.5 g of purified water until completely dissolved (approximately 24 hours). The appropriate amount of Compound 2 HCl salt based on free base was weighed and transferred to a scintillation vial. The desired amount of 0.5% methylcellulose stock solution for making a 6 mg/mL based on free base (6.48 mg/mL based on HCl salt) was transferred into the vial and sonicated for 20 minutes and homogenized for approximately 5 minutes.

[3] = Solubility of Compound 3 in solvents
[4] = 0.5% methylcellulose/0.5% polysorbate 80

SMILES: Cc1ccc(NC(=O)C2(c3ccc4c(c3)OC(F)(F)O4)CC2)nc1-c1cccc(C(=O)O)c1 [Compound 2 Form I, 3-(6-(1-(2,2-difluorobenzo[d][1,3]dioxol-5-yl)cyclopropanecarboxamido)-3-methylpyridin-2-yl)benzoic acid]
chemically stable, no sign of chemical degradation ([1]; room temperature, 0.5% methylcellulose/0.5% polysorbate 80 formulation vehicle): at least 24 hrs | physically and chemically stable, no sign of chemical degradation [2]: at least 24 hrs

SMILES: Cc1ccc(NC(=O)C2(c3ccc4c(c3)OC(F)(F)O4)CC2)nc1-c1cccc(C(=O)O)c1.Cl [Compound 2 HCl salt, 3-(6-(1-(2,2-Difluorobenzo [d][1,3]dioxol-5-yl)cyclopropanecarboxamido)-3-methylpyridin-2-yl)benzoic acid.HCl salt]
physical stability of suspension [1, 4]: not physically stable | conversion of salt form in suspension vehicle [1, 4]: quickly converted to Compound 2 Form I | conversion of salt form in suspension vehicle ([1]; 0.5% methylcellulose/0.5% polysorbate 80, listed as HCl salt): quickly converted to Compound 2 Form I at T(0)

solubility ([3]; first solvent: ethyl acetate, ethanol, isopropyl alcohol, or acetone): greater than 20 mg/mL | solubility ([3]; organic solvent or mixture, acetonitrile, methanol, ethanol, isopropyl alcohol, acetone, read-out: solubility): > 20 mg/mL | solubility ([3]; second solvent: heptane or water, water, read-out: solubility (poor)): < 1 mg/mL
SMILES: CC(C)(CO)c1cc2cc(NC(=O)C3(c4ccc5c(c4)OC(F)(F)O5)CC3)c(F)cc2n1C[C@H](O)CO [Compound 3, (S)-1-(2,2-difluorobenzo[d][1,3]dioxol-5-yl)-N-(1-(2,3-dihydroxypropyl)-6-fluoro-2-(1-hydroxy-2-methylpropan-2-yl)-1H-indol-5-yl)cyclopropanecarboxamide]

— patent US20160200684A2, “Pharmaceutical Compositions for the Treatment of CFTR-Mediated Disorders” (Vertex Pharmaceuticals Incorporated, priority 2012, published 2016)
